The target in one assay is T1, FOLR1 (Homo sapiens, UniProt P15328).
T1 construct: purchased R&D System 5646-FR
Briefly: BIAcore T200 binding affinity to FOLR1 (CM5 chip conjugated with FOLR1). The text has this: Buffer: HBS-EP+ buffer 10× (GE, Cat #: BR100669), diluted 10 folds with deionized water before use.
In the experiment, CM5 chip was conjugated with ligand FOLR1 (R&D System, Cat #: 5646-FR).
A general note: Surface plasmon resonance follows binding to a sensor surface in real time, without labels.

The test system of a further assay is LNCaP. Kind of assay: Pharmacodynamic study 2 in CDX model. The following applies: 3 mg/kg D1, 8, 15, tail vein. Type of assay: in vivo, BALB/c-nude mice. The protocol:
Experiment purpose: to perform a pharmacodynamic study of conjugate compound CB-20BK in a subcutaneous xenograft model (CDX) of humanized LNCaP, DU145 and NCI-H460 cell lines
The cells or tumor tissue mass were prepared and subcutaneously inoculated into the anterior right flank of BALB/c-nude mice. When the tumor volume expanded to 80-160 mm^3, a randomized grouping was performed, and a model control group and administration groups were set. The mice were administrated from the first day of grouping, wherein the administration dose was adjusted according to the latest weight measurement. The mice were administrated via tail vein injection at an administration volume of 10 μl/g. After grouping and administration, the effects of tumor growth and treatment on normal behaviors of animals, specifically including the activity of experimental animals, food intake and drinking status, weight gain or loss status, and other abnormal conditions in eyes, hair, etc., were monitored. After grouping and administration, the weight of mice was measured twice a week to calculate the rate of weight change; at the same time, the long diameter and short diameter of the tumor were measured with a vernier caliper, and the tumor volume, relative tumor proliferation rate, tumor volume inhibition rate and other indicators were calculated. […]

In assay [1] the target is T2, FOLH1 (Homo sapiens, UniProt Q04609). Briefly: Gator binding affinity to FOLH1 (SA probe with Biotin-CB-20BK, analyte FOLH1). The arrangement: purchased Sino Biologicals 15877-H07H. The protocol:
SA probe (Probe Life, Cat #: 1906018)
Buffer: Q buffer (Probe Life), 10 mM, pH=7.4
(2) The experiment was carried out according to Gator™ (Probe Life) instruction manual to determine the binding affinity of Biotin-CB-20BK to FOLH1. In the experiment, SA probe binds to ligand Biotin-CB-20BK, and the analyte is FOLH1 (Sino Biologicals, Cat #: 15877-H07H).
Target sequence in this assay (Q04609 44-750 limits assumed): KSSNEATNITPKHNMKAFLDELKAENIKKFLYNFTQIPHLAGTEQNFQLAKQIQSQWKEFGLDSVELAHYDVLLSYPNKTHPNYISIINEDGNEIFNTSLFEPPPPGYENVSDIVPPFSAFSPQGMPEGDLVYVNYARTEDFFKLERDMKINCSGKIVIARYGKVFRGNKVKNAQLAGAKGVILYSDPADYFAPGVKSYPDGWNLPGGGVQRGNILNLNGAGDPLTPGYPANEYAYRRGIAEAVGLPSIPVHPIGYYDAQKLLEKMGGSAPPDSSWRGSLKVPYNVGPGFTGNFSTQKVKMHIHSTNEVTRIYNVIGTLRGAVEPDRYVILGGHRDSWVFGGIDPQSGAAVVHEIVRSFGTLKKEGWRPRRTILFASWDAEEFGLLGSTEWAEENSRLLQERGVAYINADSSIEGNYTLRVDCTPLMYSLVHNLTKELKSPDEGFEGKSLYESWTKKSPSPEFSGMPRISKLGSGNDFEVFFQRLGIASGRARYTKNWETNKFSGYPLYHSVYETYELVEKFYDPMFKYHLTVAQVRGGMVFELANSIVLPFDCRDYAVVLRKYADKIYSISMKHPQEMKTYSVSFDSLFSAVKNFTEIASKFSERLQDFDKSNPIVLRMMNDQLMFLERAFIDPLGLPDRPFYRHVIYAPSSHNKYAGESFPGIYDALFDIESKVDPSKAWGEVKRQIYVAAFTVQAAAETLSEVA

Assay [2] addresses T2, FOLH1. Kind of assay: BIAcore T200: binding of FOLH1 to compound-FOLR1 complex. The arrangement: purchased Sino Biologicals (FOLH1); R&D System (FOLR1) 15877-H07H (FOLH1); 5646-FR (FOLR1). The source says:
CM5 chip was conjugated with a ligand: FOLR1 (R&D System, Cat #: 5646-FR)
Analyte: CB-20BK, FA-MMAE and FOLH1 (Sino Biologicals, Cat #: 15877-H07H)
According to BIAcore T200 (GE) operating manual, FOLR1 was conjugated to the CM5 chip; CB-20BK or FA-MMAE was loaded first, and then FOLH1 was loaded; and the binding of FOLH1 to the CB-20BK-FOLR1 complex was detected.
Target sequence in this assay (Q04609 44-750 limits assumed): as above
Target sequence in this assay (P15328 25-233 partner limits assumed): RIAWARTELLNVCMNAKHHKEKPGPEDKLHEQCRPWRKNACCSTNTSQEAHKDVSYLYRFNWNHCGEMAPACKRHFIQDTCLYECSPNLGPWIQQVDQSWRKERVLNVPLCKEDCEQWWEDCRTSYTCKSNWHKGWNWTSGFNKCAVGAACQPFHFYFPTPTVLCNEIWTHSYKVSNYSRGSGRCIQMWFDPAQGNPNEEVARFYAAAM

Assay [3] deals with MDA-MB-468 (human breast cancer cells). Briefly: Inhibition of cell line proliferation, CCK8. The assay is classed as cell-based. The following applies: MDA-MB-468, 68-72 hours, CCK8.
Assay [4] concerns lung cancer PDX model LU1206. Kind of assay: Effectiveness in lung cancer LU1206 model (PDX model). Type of assay: in vivo, BALB/c nude mice.
Method: BALB/c nude mice bore tumors subcutaneously and, when the tumor volume reached about 150 mm^3, were grouped into: low-dose, medium-dose and high-dose test sample groups, a small molecule MMAE control group, a targeting polypeptide 20BK-SM09 control group, and a blank control group (a total of 6 groups, and 8 mice per group); the mice were administered on day 1, day 8 and day 15 after the grouping; and the observation was continued for 14 days after the last administration.
[5] abbreviates: FOLR1 on CM5 chip, N/D = no specific binding was detected.
Setting [6] is: 0.375 mg/kg on day 1, 8, 15, euthanized on day 29.

Square brackets hold non-standard residues; d marks the D form. Peptide text beside a SMILES is read from it. * marks the point of attachment. Dolaproine = CO[C@@H]([C@@H]1CCCN1)[C@@H](C)C(=O)O; Dil = CC[C@H](C)[C@H](NC)[C@@H](CC(=O)O)OC; X1 = C[C@@H](N*)[C@@H](O)c1ccccc1; NMeV = CN[C@H](C(=O)O)C(C)C

T1 sequence (P15328 25-233 limits assumed): as the sequence (P15328 25-233 partner limits assumed) above

`CC[C@H](C)[C@@H]([C@@H](CC(=O)N1CCC[C@H]1[C@H](OC)[C@@H](C)C(=O)N[C@H](C)[C@@H](O)c1ccccc1)OC)N(C)C(=O)[C@@H](NC(=O)[C@H](C(C)C)N(C)C(=O)OCc1ccc(NC(=O)C(CCCNC(N)=O)NC(=O)[C@@H](NC(=O)CCCCCN2C(=O)CC(SC[C@H](NC(=O)[C@H](CCCCN)NC(=O)[C@H](CC(=O)O)NC(=O)[C@H](CC(=O)O)NC(=O)Cc3ccc(CNC(=O)NCCCC[C@H](NC(=O)N[C@@H](CCC(=O)O)C(=O)O)C(=O)O)cc3)C(=O)N[C@@H](CCCCNC(=O)CC[C@H](NC(=O)c3ccc(NCc4cnc5[nH]c(N)nc(=O)c5n4)cc3)C(=O)O)C(N)=O)C2=O)C(C)C)cc1)C(C)C` (some centres unmarked) [CB-20BK]: on FOLR1 (BIAcore T200), the “specific binding to FOLR1 (in words)” value is “specifically binds to FOLR1 with a good affinity”. Besides, binding on FOLR1 (setting [5]) was characterised by a dissociation constant (Kd) of 0.127 nM. This molecule also returned a kd at FOLR1 (setting [5]) of 0.000131 s⁻¹. The kon on FOLR1 (FOLR1 on CM5 chip, N/D = no specific binding was detected, read-out: ka) was determined as 1.03e+06 M⁻¹ s⁻¹. Moreover, in the assay on LNCaP, the “Tumor growth inhibition rate (TGI)” value is 95.68%. Further, the “binding to FOLH1 (in words)” value on FOLH1 [1] is recorded as “binds to FOLH1 with a good affinity”. Moreover, the “Binding of compound-FOLR1 complex to FOLH1 solution” value is reported as −0.9 RU at FOLH1 [2] (FOLH1 concentration 0.0625 μM), 4.6 RU at FOLH1 [2] (FOLH1 concentration 0.125 μM), 14.1 RU on FOLH1 [2] (FOLH1 concentration 0.25 μM) and 23.9 RU on FOLH1 [2] (FOLH1 concentration 0.5 μM). In addition, on FOLH1 [2] (FOLH1 solution at a high concentration), the “amount of FOLH1 bound to compound-FOLR1 complex (in words)” value was “significantly higher than that bound to an FA-MMAE-FOLR1 complex”.

Regarding `CC[C@H](C)[C@@H]([C@@H](CC(=O)N1CCC[C@H]1[C@H](OC)[C@@H](C)C(=O)N[C@H](C)[C@@H](O)c1ccccc1)OC)N(C)C(=O)[C@@H](NC(=O)[C@@H](NC)C(C)C)C(C)C` [MMAE, monomethyl auristatin E] (H-[NMeV]V[Dil][Dolaproine]-X1), the IC50 in assay [3] amounted to 2 nM. The “tumor growth inhibition effect (in words)” value in assay [4] (0.375 mg/kg) is “clear tumor growth inhibition effect”. Moreover, in assay [4] (0.375 mg/kg on day 1, 8, 15), the Tumor volume amounted to 778.32 mm^3 and the “Tumor volume Tumor growth inhibition rate” value was 36.03%. Also, in assay [4] (setting [6]), the Tumor weight was 437.73 mg and the “Tumor weight Inhibition ratio” value worked out at 54.53%.

One may read the Kd as the free concentration of one partner at which half of the binding sites on the other are occupied at equilibrium, for simple one-to-one binding. In general, IC50 refers to the concentration at which inhibition is half-maximal. Read a high IC50 as a need for much substance.

The values above are taken from US20220175761A1, “BI-LIGAND DRUG CONJUGATE AND USE THEREOF” (COHERENT BIOPHARMA (SUZHOU), LIMITED, priority 2019, published 2022).
